This assay deals with S. aureus. In words: Sandwich ELISA readout of growth-dependent metabolic labeling (biotin-D-lysine probe incorporation) +/- antibiotic. Conditions: S. aureus +/- vancomycin; FIG. 4. The format is cell-based, Staphylococcus aureus. The method, then: FIG. 4. ELISA can be used as a rapid readout for antibiotic susceptibility. S. aureus was incubated+/−antibiotic for 20 min then with cell envelope probe for an additional 10 min. Probe incorporation was quantitated by sandwich ELISA (absorbance, OD450).
Bacterial strains and growth conditions. Staphylococcus aureus was grown in brain heart infusion broth (BHI; BD BBL, Sparks, MD.). Escherichia coli K-12 was grown in Luria Bertani broth (LB; Apex Research Products, El Cajon, CA). All bacteria were initially grown by shaking at 37° C. overnight.
Cell wall labeling. Bacterial cultures were back diluted in their respective media and grown at 37° C. until the mid-log phase (OD600=0.3 for S. aureus; OD600=0.35 for E. coli); for concentration dependency experiments the starting OD600 for each sample varied. Where appropriate, cultures were treated with freshly prepared ampicillin (100 μg/mL; Fisher Bioreagents, Fair Lawn, NJ) or vancomycin (100 μg/mL; Alfa Aesar, Ward Hill, MA) and incubated on a shaker at 37° C. for 90 minutes.
Growing bacteria were labeled with biotin D-lysine (Chem-Impex International, Wood Dale, IL; reagent was deprotected first). Unless otherwise indicated, they were labeled with 1 mM biotin-D-lysine shaking at 37° C. for 20 (S. aureus) or 30 (E. coli) minutes. […]
ELISA experiment. […] The absorbance was measured at 450 nm with a BioTek Plate Reader.
For orientation: In an ELISA, binding on a coated surface is turned into a signal by an enzyme label.

On to `CN[C@H](CC(C)C)C(=O)N[C@H]1C(=O)N[C@@H](CC(N)=O)C(=O)N[C@H]2C(=O)N[C@H]3C(=O)N[C@H](C(=O)N[C@H](C(=O)O)c4cc(O)cc(O)c4-c4cc3ccc4O)[C@H](O)c3ccc(c(Cl)c3)Oc3cc2cc(c3O[C@@H]2O[C@H](CO)[C@@H](O)[C@H](O)[C@H]2O[C@H]2C[C@](C)(N)[C@H](O)[C@H](C)O2)Oc2ccc(cc2Cl)[C@H]1O` [vancomycin], for which the “ELISA readout of probe incorporation (absorbance, OD450) with versus without antibiotic” value is recorded as “can discriminate between S. aureus+/−vancomycin”.

Values taken from patent US20250002970A1, “A[…] LABELING FOR DETECTION OF BACTERIAL VIABILITY, GROWTH AND ANTIBIOTIC SUSCEPTIBILITY” (University of Massachusetts, priority 2021, published 2025).
